Here are results for 52 compounds from PubChem BioAssay AID1996.

Molecules are shown by their SMILES. Values after ≈ are worked out from the molar mass of the structure shown.

Broadly, the kinetic solubility is the concentration staying in solution when a stock, usually in DMSO, is diluted into the medium.

The conditions of the data set: buffer; pH 7.4; 200.0 µM.
Compound `O=[N+]([O-])c1ccc(Sc2ncc3ccccn23)nc1` showed a solubility (kinetic) of 20.6 µg/mL (≈ 75.7 µM).
For `COc1ccccc1CCNC(=O)Cc1cccs1`, the kinetic solubility was 37.5 µg/mL (≈ 136 µM).
In the case of `Br.COc1ccc(C2=CSC3=NCCN23)cc1Br`, the solubility (kinetic) was determined as 54.4 µg/mL.
As to `O=[N+]([O-])c1ccc(N2CCc3ccccc3C2)cc1`, the solubility (kinetic) came out at 0.9 µg/mL (≈ 3.54 µM).
In turn, `CN1CCN(C(=O)c2ccccc2NC(=O)c2ccccc2)CC1` had a solubility (kinetic) of more than 48.5 µg/mL.
As for `NC(=O)c1ccccc1N1CCCCC1`, the figure is more than 30.6 µg/mL.
As for `O=C(CNC(=O)c1ccccc1F)NCCc1ccc(Cl)cc1`, the kinetic solubility stood at 47.5 µg/mL (≈ 142 µM).
Regarding `Cn1cc(CCCC(=O)NCc2ccc(F)cc2)c2ccccc21`, the solubility (kinetic) turned out to be 22.7 µg/mL (≈ 70 µM).
`NC(=O)c1c(NC(=O)c2ccccc2Cl)sc2c1CCC2`: the solubility (kinetic) is 0.7 µg/mL (≈ 2.18 µM). Against the preceding compound, the solubility kinetic is about 32-fold lower.
As for `COc1ccc(NCC(O)Cn2c(C)c(C)c3ccccc32)cc1` (configuration not stated), the figure is 10.2 µg/mL (≈ 31.4 µM); as for `CCC(=O)OCC(=O)Nc1cc(S(=O)(=O)N(C)C)ccc1Cl`, 46 µg/mL (≈ 132 µM).
The compound `CCOc1cc(/C=C(\C#N)C(=O)Nc2ccccn2)ccc1O` yielded a kinetic solubility of more than 46.4 µg/mL.
The value for `Cc1cc(NC(=O)C2=C(O)c3ccccc3S(=O)(=O)N2C)no1` was 33.9 µg/mL (≈ 101 µM); that for `O=C(Nc1ccc(C(=O)c2ccc(C(=O)O)c(C(=O)O)c2)cc1)c1ccccc1` was 57.4 µg/mL (≈ 147 µM).
The value for `CC(C)N(Cc1ccccc1)C(=O)CN1C(=O)NC2(CCOc3ccccc32)C1=O` (configuration not stated) was more than 61.1 µg/mL; that for `COc1ccc(N2CCN(C(CNC(=O)C(=O)NCCCO)c3ccco3)CC2)cc1` (configuration not stated) was more than 64.6 µg/mL; that for `COc1ccc(NC(=O)Cn2cnc3ccccc3c2=O)cc1OC` was 12.6 µg/mL (≈ 37.1 µM).
On to `CCOC(=O)/C=C1\SCC(=O)N1CC(=O)Nc1cccc(F)c1`, for which the kinetic solubility was 17.1 µg/mL (≈ 50.5 µM).
The value for `COc1ccc(C(C)NC(=O)c2ccncc2)cc1` (configuration not stated) was 36.2 µg/mL (≈ 141 µM); that for `COc1cccc(NC(=O)N2C3CCCC2CC(NC(=O)C2CC2)C3)c1` (configuration not stated) was 44.4 µg/mL (≈ 124 µM); that for `Cc1ccc(-c2csc(NC(=O)c3c(C)noc3C)n2)cc1` was 6.4 µg/mL (≈ 20.4 µM).
The value for `Cc1cc2ncn(S(=O)(=O)c3ccc(F)cc3)c2cc1C` was 31.8 µg/mL (≈ 104 µM); that for `CCc1noc(C)c1C(=O)Nc1ccc(F)c(F)c1F` was more than 42.6 µg/mL.
The value for `COc1ccc(S(=O)(=O)NC2CC(C)(C)NC(C)(C)C2)cc1` was more than 49 µg/mL; that for `Cc1cc(C)c(C)c(OCCN2CCOCC2)c1` was 27.3 µg/mL (≈ 109 µM).
The compound `CC1CCCN(Cc2c(O)ccc3c4c(c(=O)oc23)CCCC4)C1` (configuration not stated) gave a solubility (kinetic) of 44 µg/mL (≈ 134 µM). Against the preceding compound, the solubility kinetic is about 1.6-fold higher.
In turn, `Cc1ccc(C)c(NC(=S)N2CCC(NC(=O)c3ccco3)CC2)c1` came in with a kinetic solubility of 45.4 µg/mL (≈ 127 µM).
As for `CCOc1ccc(C(C)=O)cc1Cc1c(O)[nH]c(=S)[nH]c1=O`, the figure is 46.3 µg/mL (≈ 145 µM); as for `Oc1ccc(/C=N/N2CCCCC2)cc1O`, more than 33 µg/mL.
As for `CN(Cc1nc(Cc2cccc(F)c2)no1)CC1CCOCC1`, the figure is 41.1 µg/mL (≈ 129 µM).
Compound `Cn1c(SCc2ccc(F)cc2)nnc1-c1ccncc1` gave a kinetic solubility of more than 45.1 µg/mL.
Compound `CCNC(=S)N(Cc1cc2c(C)ccc(C)c2[nH]c1=O)C1CCCC1` came in with a solubility (kinetic) of less than 0.3 µg/mL.
As for `CCCCCCNc1nc(Cl)nc(NC(C)(C)CO)n1`, the figure is 3.1 µg/mL (≈ 10.3 µM); as for `COc1cc(/C=N/NC(=O)c2ccccc2)ccc1O`, more than 40.5 µg/mL; as for `O=C(OCC(=O)N1CCC(Cc2ccccc2)CC1)c1ccccc1O`, 2.2 µg/mL (≈ 6.22 µM).
Take `CC(=O)Nc1ccc(C(=O)COC(=O)c2cccs2)c(F)c1`: the kinetic solubility was 9.6 µg/mL (≈ 29.9 µM). Against the preceding compound, the solubility kinetic is about 4.4-fold higher.
The compound `COC(=O)c1cc(CNC(=O)Cc2ccsc2)ccc1OC` had a solubility (kinetic) of 47.5 µg/mL (≈ 149 µM). This solubility kinetic lies about 4.9-fold higher than the previous one.
The value for `Cc1cc(C)cc(N2C(=O)CN(Cc3ccccc3)C2=S)c1` was 4.1 µg/mL (≈ 13.2 µM).
As for `Nc1no[n+]([O-])c1-c1ccccc1`, the figure is 24.2 µg/mL (≈ 137 µM).
In the case of `COc1cccc(OCCNS(=O)(=O)c2ccccc2[N+](=O)[O-])c1`, the solubility (kinetic) was determined as 47.2 µg/mL (≈ 134 µM).
Regarding `CNC(=O)CSc1nccn1Cc1ccc(Cl)cc1`, the solubility (kinetic) is more than 44.4 µg/mL.
Turning to `CCOc1ccccc1CNc1nc2ccccc2n1C`, the kinetic solubility was determined as 5.2 µg/mL (≈ 18.5 µM).
`Cc1cc(C)nc(N2CCC(C(=O)NC3CC3)CC2)n1` came in with a solubility (kinetic) of 36.4 µg/mL (≈ 133 µM). Compared with the last compound, the solubility kinetic is about 7-fold higher.
Take `O=C(COC(=O)c1ccc(F)cc1)NCC1CCCCC1`: the solubility (kinetic) was 9.4 µg/mL (≈ 32 µM). This solubility kinetic is about 3.9-fold lower than that of the compound before.
For `CCCc1c(C)nc(-c2ccc(C)cc2)nc1OC(=O)N(C)C`, the kinetic solubility was 27.3 µg/mL (≈ 87.1 µM).
As for `CN1C(=O)OC(C)(C)C1=O`, the figure is less than 0.3 µg/mL; as for `Cn1c(Cc2ccccc2)nnc1SCC(=O)NC1CCCC1`, more than 49.6 µg/mL; as for `COc1cc(OC)c(NC(=O)c2csc(C)c2)cc1Cl`, less than 0.7 µg/mL.
The compound `CCCC1(CCC)NC(=O)N(CC(=O)N2CCc3ccccc32)C1=O` had a kinetic solubility of more than 51.5 µg/mL.
As for `CCn1c(C)c(C(=O)c2ccccc2)c(C#N)c1C(=O)O`, the figure is 36.6 µg/mL (≈ 130 µM); as for `COc1ccc(S(=O)(=O)Oc2cc(C(=S)N3CCOCC3)ccc2OC)cc1`, 25.4 µg/mL (≈ 60 µM).
The value for `CCN1CCCC1Cn1cnc2c([nH]c3ccc(OC)cc32)c1=O` (configuration not stated) was more than 49 µg/mL.
